Consider 14 molecules from ChEMBL document CHEMBL1154431, “Synthesis of biologically active N-methyl derivatives of amidines and cyclized five-membered products of amidines with oxalyl chloride” (2008).

Common to all, as to format: functional
The test system of test [1] is Rattus norvegicus. As to the kind of experiment: Antiinflammatory activity against carrageenan-induced paw edema in albino rat at 100 mg/kg, po administered 30 mins before carrageenan challenge measured after 1 to 3 hrs.
Test [2] concerns Mus musculus. In words: Analgesic activity in mouse assessed as decrease in acetic acid-induced writhing at 100 mg/kg, po administered 30 mins before acetic acid challenge measured after 1 hr. Details: scale not given: the % may be the effect or the level left. For orientation: An intraperitoneal irritant provokes the stretching counted in writhing tests.
In test [3] the test system is Mus musculus. In words: Analgesic activity in mouse assessed as decrease in acetic acid-induced writhing at 50 mg/kg, po administered 30 mins before acetic acid challenge measured after 1 hr. Details: scale not given: the % may be the effect or the level left.
For test [4], the system named is Rattus norvegicus. As to the kind of experiment: Antiinflammatory activity against carrageenan-induced paw edema in albino rat at 50 mg/kg, po administered 30 mins before carrageenan challenge measured after 1 to 3 hrs. For orientation: In the carrageenan paw model, swelling and tenderness develop within hours.
Test [5] deals with Mus musculus. As to the kind of experiment: Analgesic activity in mouse assessed as decrease in acetic acid-induced writhing at 25 mg/kg, po administered 30 mins before acetic acid challenge measured after 1 hr. On the set-up: scale not given: the % may be the effect or the level left.
The test system of test [6] is Rattus norvegicus. In words: Antiinflammatory activity against carrageenan-induced paw edema in albino rat at 25 mg/kg, po administered 30 mins before carrageenan challenge measured after 1 to 3 hrs.

On to `C/N=C(/NNS(=O)(=O)c1ccc(C)cc1)c1ccccn1`, for which the results for the Activity in the test with Rattus norvegicus [1] and in the test with Mus musculus [2] were 12% and 75%, respectively.

On to `COc1ccc(S(=O)(=O)NN2C(=O)C(=O)N=C2c2ccccn2)cc1`, for which the Activity in the test with Mus musculus [3] came to 18%; with Rattus norvegicus [4], 20%.

For `Cc1ccc(S(=O)(=O)NN2C(=O)C(=O)N=C2c2ccccn2)cc1`, the Activity stood at 60% in the test on Mus musculus [3] and 31% in the test on Rattus norvegicus [4].

Regarding `C/N=C(/NNS(=O)(=O)c1ccc(OC)cc1)c1ccncc1`, the Activity in the test on Mus musculus [3] was determined as 13%; in the test with Rattus norvegicus [4], 21%.

`C/N=C(/NNS(=O)(=O)c1ccccc1)c1cnccn1`: the Activity with Mus musculus [3] and in the test on Rattus norvegicus [4] was 11% throughout.

Take `COc1ccc(S(=O)(=O)NN2C(=O)C(=O)N=C2c2ccncc2)cc1`: the results for the Activity in the test on Rattus norvegicus [1] and in the test on Mus musculus [2] were 34% and 75%, respectively.

Take `C/N=C(/NNS(=O)(=O)c1ccc(OC)cc1)c1cnccn1`: the Activity is 16% with Mus musculus [3] and 20% in the test with Rattus norvegicus [4].

With `O=C1N=C(c2ccncc2)N(NS(=O)(=O)c2ccccc2)C1=O`, the Activity in the test on Mus musculus [3] was 60%; with Rattus norvegicus [4], 37%.

Consider `COc1ccc(S(=O)(=O)NN2C(=O)C(=O)N=C2c2cnccn2)cc1`, for which the Activity in the test with Mus musculus [3] was 12%; in the test with Rattus norvegicus [4], 13%.

As to `C/N=C(/NNS(=O)(=O)c1ccc(C)cc1)c1ccncc1`, the Activity was determined as 17% with Mus musculus [3]; 9% in the test with Mus musculus [5]; 56% with Rattus norvegicus [1]; 44% in the test with Rattus norvegicus [4]; 27% with Rattus norvegicus [6]; 33% in the test on Mus musculus [2].

`O=C1N=C(c2cnccn2)N(NS(=O)(=O)c2ccccc2)C1=O`: the Activity is 30% in the test with Mus musculus [3] and 25% in the test on Rattus norvegicus [4].

In the case of `C/N=C(/NNS(=O)(=O)c1ccccc1)c1ccncc1`, the Activity came out at 7% in the test with Mus musculus [3] and 16% in the test with Rattus norvegicus [4].

With `C/N=C(/NNS(=O)(=O)c1ccc(OC)cc1)c1ccccn1`, the Activity with Mus musculus [3] and with Rattus norvegicus [4] was 20% throughout.

For `CCCCC1C(=O)N(c2ccccc2)N(c2ccccc2)C1=O` [PHENYLBUTAZONE], the Activity is listed as 40% in the test on Mus musculus [3]; 24% in the test with Mus musculus [5]; 58% in the test with Rattus norvegicus [1]; 37% in the test with Rattus norvegicus [4]; 19% with Rattus norvegicus [6]; 58% in the test with Mus musculus [2].
